Among the test systems are 786-0; A498; HCC 2998; HL-60; HOP-92; LOX IMVI; M14; NCI-H522; OVCAR-3; OVCAR-5; OVCAR-8; SF-295; SK-MEL-28; SN12C; SNB-19; TK-10; U-251; UO-31; HOP-62.
Common to all, as to assay: NCI-60 cell line screen, 48 h

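Dose response: 5 concentrations. Exposure: 48 h. Format: 96-well plates. Endpoint: linear interpolation; highest concentration if not reached. GI50 is the concentration that inhibits growth by half.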 Calls of active or inactive are those of the source. Cut-off read from the data, not from the text of the source: active = GI50 up to about 1.1 µM and inactive = higher.

On to `COC(=O)C1Cc2c(n(Cc3ccccc3)c3ccccc23)C(CCC(=O)O)N1C(C)C` (stereo unspecified), for which the GI50 in the test with 786-0, in the test with A498, in the test with HCC 2998, in the test on HL-60, in the test on HOP-92 and with LOX IMVI was > 100 µM (inactive) in each case. In addition, the GI50 with M14, with NCI-H522, in the test with OVCAR-3, in the test on OVCAR-5, with OVCAR-8 and in the test with SF-295 was > 100 µM (inactive) throughout. Further, the GI50 with SK-MEL-28, in the test with SN12C, in the test on SNB-19, with TK-10, with U-251 and in the test with UO-31 was > 100 µM (inactive) each time.
With `COc1cc2cnc3c4ccccc4ccc3c2cc1OC`, the GI50 in the test with 786-0, in the test on A498, in the test on HCC 2998, with HOP-62, with M14 and in the test on NCI-H522 was > 100 µM (inactive) throughout. Moreover, the GI50 in the test on OVCAR-3, in the test with OVCAR-5, in the test on OVCAR-8, with SF-295, in the test with SK-MEL-28 and in the test on SN12C was > 100 µM (inactive) each time. Besides, the GI50 with SNB-19, in the test on TK-10, with U-251 and in the test on UO-31 was > 100 µM (inactive) throughout.
On to `Cc1ccc(S(=O)(=O)N2CCCCC2CCO)cc1` (stereo unspecified), for which the GI50 in the test with 786-0, in the test with A498, in the test on HCC 2998, in the test with HL-60, with HOP-62 and in the test with HOP-92 was > 100 µM (inactive) throughout. Moreover, the GI50 was > 100 µM (inactive) in the test on M14; 0.0342 µM (active) with NCI-H522; > 100 µM (inactive) in the test with OVCAR-3; > 100 µM (inactive) in the test with OVCAR-5; > 100 µM (inactive) in the test on OVCAR-8; > 100 µM (inactive) with SF-295. Also, the GI50 with SN12C, in the test on SNB-19, in the test on TK-10, in the test on U-251 and with UO-31 was > 100 µM (inactive) each time.
In the case of `CCn1c(=O)c2ccccc2n2c(=O)c3cc4ccccc4cc3nc12`, the GI50 is 37.3 µM (inactive) in the test with 786-0; > 100 µM (inactive) in the test on A498; > 100 µM (inactive) with HCC 2998; 91.8 µM (inactive) in the test with HL-60; 96.8 µM (inactive) in the test on HOP-62; > 100 µM (inactive) in the test on LOX IMVI. For the same molecule, the GI50 in the test on M14 is > 100 µM (inactive); with NCI-H522 it was 98.9 µM (inactive); in the test on OVCAR-3, > 100 µM (inactive); in the test on OVCAR-5 it was > 100 µM (inactive); in the test with OVCAR-8, 52.2 µM (inactive); with SF-295, 28.3 µM (inactive). The GI50 is > 100 µM (inactive) with SN12C; 52.1 µM (inactive) in the test on SNB-19; > 100 µM (inactive) in the test on TK-10; > 100 µM (inactive) in the test on U-251; > 100 µM (inactive) in the test with UO-31.
For `CN(C)/C=N\c1ccn(CCO)c(=O)n1`, the GI50 in the test with 786-0, in the test on A498, in the test with HCC 2998, with HL-60, in the test on HOP-62 and in the test with LOX IMVI was > 100 µM (inactive) each time. For the same molecule, the GI50 in the test on M14, in the test on NCI-H522, with OVCAR-3, with OVCAR-5, in the test on OVCAR-8 and in the test on SK-MEL-28 was > 100 µM (inactive) throughout. For the same molecule, the GI50 in the test on SN12C, in the test on SNB-19, with TK-10, with U-251 and in the test with UO-31 was > 100 µM (inactive) each time.
Regarding `CCOC(=O)C1(C(=O)OCC)CC=C(C)CC12C(=O)Nc1ccccc12` (stereo unspecified), the GI50 in the test on 786-0, in the test on A498, in the test with HCC 2998, in the test on HL-60, in the test on HOP-62 and in the test with HOP-92 was > 100 µM (inactive) in each case. Moreover, the GI50 in the test on LOX IMVI, in the test with M14, in the test on NCI-H522, in the test on OVCAR-3, in the test on OVCAR-5 and in the test with OVCAR-8 was > 100 µM (inactive) throughout. Further, the GI50 in the test with SF-295, in the test on SK-MEL-28, in the test with SN12C, in the test on SNB-19, in the test on TK-10 and with U-251 was > 100 µM (inactive) throughout.
Consider `O=c1c2ccccc2nc(-c2ccccc2)n1NCC1(O)OCC(O)C(O)C1O` (stereo unspecified), for which the GI50 with 786-0 was > 100 µM (inactive); in the test on A498, > 100 µM (inactive); in the test on HCC 2998, > 100 µM (inactive); in the test on HL-60 it was 33 µM (inactive); with HOP-62, > 100 µM (inactive); in the test with HOP-92 it was > 100 µM (inactive). The GI50 in the test with M14 is > 100 µM (inactive); in the test with NCI-H522, > 100 µM (inactive); in the test on OVCAR-3, > 100 µM (inactive); in the test on OVCAR-5, > 100 µM (inactive); in the test with OVCAR-8 it was > 100 µM (inactive); with SF-295, 49.2 µM (inactive). Moreover, the GI50 in the test on SK-MEL-28 is > 100 µM (inactive); in the test with SN12C, > 100 µM (inactive); in the test with SNB-19, > 100 µM (inactive); in the test on TK-10, > 100 µM (inactive); with U-251, 87.3 µM (inactive); in the test with UO-31, > 100 µM (inactive).
On to `C[C@]12CC(C=O)C(=O)C(O)=C1CC[C@@H]1C2CC[C@@]2(C)C1CC[C@]2(C)O` (stereo partly specified), for which the GI50 is 16.3 µM (inactive) in the test with 786-0; 22.1 µM (inactive) in the test with A498; 10.1 µM (inactive) in the test with HCC 2998; 15.8 µM (inactive) in the test on HL-60; 22.1 µM (inactive) in the test with HOP-62; 16 µM (inactive) in the test on HOP-92. Besides, the GI50 in the test on LOX IMVI is 11.5 µM (inactive); in the test with M14 it was 16.8 µM (inactive); with OVCAR-3, 24.8 µM (inactive); with OVCAR-5, 16.5 µM (inactive); in the test on OVCAR-8, 28.8 µM (inactive); in the test on SF-295, 27.1 µM (inactive). The GI50 in the test on SK-MEL-28 is 25.8 µM (inactive); with SN12C it was 21.2 µM (inactive); with SNB-19, 25.2 µM (inactive); with TK-10, 38.9 µM (inactive); in the test with U-251 it was 20.4 µM (inactive); with UO-31, 21.3 µM (inactive).
As to `CC[C@H]1CNC(=O)CC1CC(=O)OC` (stereo partly specified), the GI50 in the test with 786-0, in the test with A498, in the test with HCC 2998, in the test on HOP-62, in the test with LOX IMVI and with M14 was > 100 µM (inactive) each time. The GI50 in the test with NCI-H522, in the test with OVCAR-5, in the test with OVCAR-8, with SF-295, in the test on SK-MEL-28 and in the test on SN12C was > 100 µM (inactive) in each case. Also, the GI50 with SNB-19, in the test on TK-10, in the test with U-251 and in the test with UO-31 was > 100 µM (inactive) throughout.
`CCC(Oc1ccc(OC)c2c1C(=O)CCC2)C(=O)O` (stereo unspecified): the GI50 in the test on 786-0, in the test on A498, with HCC 2998, in the test with HL-60, with HOP-62 and with LOX IMVI was > 100 µM (inactive) in each case. The GI50 in the test with M14, with NCI-H522, in the test on OVCAR-3, in the test on OVCAR-5, in the test on OVCAR-8 and in the test on SF-295 was > 100 µM (inactive) throughout. For the same molecule, the GI50 in the test with SK-MEL-28, with SN12C, in the test on SNB-19, with TK-10, in the test on U-251 and in the test on UO-31 was > 100 µM (inactive) each time.
Consider `CCc1cc(Cc2cc(Cl)c(NC(=O)C(=O)C3NC(=O)NC3=O)c(CC)c2)cc(Cl)c1NC(=O)C(=O)C1NC(=O)NC1=O` (stereo unspecified), for which the GI50 in the test with 786-0 is 42.7 µM (inactive); in the test on A498, > 100 µM (inactive); in the test with HCC 2998, 42.8 µM (inactive); in the test with HL-60 it was 35.2 µM (inactive); with HOP-62, > 100 µM (inactive); with HOP-92, > 100 µM (inactive). The GI50 is 31.8 µM (inactive) in the test on LOX IMVI; 48.5 µM (inactive) in the test with M14; 36.8 µM (inactive) with OVCAR-3; > 100 µM (inactive) in the test on OVCAR-5; 21.4 µM (inactive) in the test with OVCAR-8; 51.4 µM (inactive) in the test on SF-295. For the same molecule, the GI50 with SK-MEL-28 was 37.5 µM (inactive); in the test on SN12C, 50.8 µM (inactive); in the test on SNB-19, 36.9 µM (inactive); in the test with TK-10, > 100 µM (inactive); in the test on U-251 it was 17.1 µM (inactive); with UO-31, > 100 µM (inactive).

The values above are taken from ChEMBL document CHEMBL1201862, “PubChem BioAssay data set” (2004).
